Assay results reported in PubChem BioAssay (NCI).
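Dose response: 5 concentrations. Exposure: 48 h. Format: 96-well plates. Endpoint: linear interpolation; highest concentration if not reached. TGI denotes the concentration required for complete inhibition of growth.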

Legend:
Assay in all cases: inhibition of tumour cell growth, NCI panel, 48 h
[1] = tested on: HCT-15 colon
[2] = tested on: SF-268 CNS
[3] = tested on: DLD-1 colon
[4] = tested on: U251 CNS
[5] = tested on: LXFL 529 NSCLC
[6] = tested on: MOLT-4 leukemia
[7] = tested on: SF-539 CNS
[8] = tested on: RPMI-8226 leukemia
[9] = tested on: CAKI-1 renal
[10] = tested on: LOX IMVI melanoma
[11] = tested on: CCRF-CEM leukemia
[12] = tested on: TK-10 renal
[13] = tested on: NCI-H23 lung
[14] = tested on: HOP-92 NSCLC
[15] = tested on: SR leukemia
[16] = tested on: SF-295 CNS
[17] = tested on: 786-0 renal
[18] = tested on: RXF-631 renal
[19] = tested on: SK-OV-3 ovarian
[20] = tested on: IGROV1 ovarian
[21] = tested on: SW-620 colon
[22] = tested on: M14 melanoma
[23] = tested on: SK-MEL-2 melanoma
[24] = tested on: A549 NSCLC
[25] = tested on: SNB-19 CNS
[26] = tested on: UACC-62 melanoma
[27] = tested on: KM12 colon
[28] = tested on: A498 renal
[29] = tested on: OVCAR-5 ovarian
[30] = tested on: UACC-257 melanoma
[31] = tested on: HOP-18 NSCLC
[32] = tested on: KM20L2 colon
[33] = tested on: OVCAR-4 ovarian
[34] = tested on: COLO 205 colon
[35] = tested on: SN12C renal
[36] = tested on: OVCAR-8 ovarian
[37] = tested on: OVCAR-3 ovarian
[38] = tested on: NCI-H460 lung
[39] = tested on: HOP-62 NSCLC
[40] = tested on: ACHN renal
[41] = tested on: NCI-H226 lung
[42] = tested on: SK-MEL-28 melanoma
[43] = tested on: SK-MEL-5 melanoma
[44] = tested on: NCI-H522 lung
[45] = tested on: XF 498 CNS
[46] = tested on: HL-60(TB) leukemia
[47] = tested on: UO-31 renal
[48] = tested on: MALME-3M melanoma
[49] = tested on: EKVX NSCLC
[50] = tested on: DMS 114 small cell lung
[51] = tested on: SNB-75 CNS
[52] = tested on: K-562 leukemia
[53] = tested on: M19-MEL melanoma
[54] = tested on: HCT-116 colon
[55] = tested on: HT29 colon
[56] = tested on: SNB-78 CNS

Cn1c(O)c(C(=O)NC2CCCCC2)c(=O)n(C)c1=S
TGI [1]: 25.9 µM | TGI [2]: 21.6 µM | TGI [3]: 24 µM | TGI [4]: 26.7 µM | TGI [5]: 16 µM | TGI [6]: 12.6 µM | TGI [7]: 21.4 µM | TGI [8]: 17.2 µM | TGI [9]: 26.5 µM | TGI [10]: 28.5 µM | TGI [11]: > 100 µM | TGI [12]: 33.3 µM | TGI [13]: 14.5 µM | TGI [14]: 8.48 µM | TGI [15]: 48.9 µM | TGI [16]: 17.8 µM | TGI [17]: 22.9 µM | TGI [18]: 20.1 µM | TGI [19]: 23.8 µM | TGI [20]: 27.8 µM | TGI [21]: 25 µM | TGI [22]: 21.4 µM | TGI [23]: 15 µM | TGI [24]: 17.4 µM | TGI [25]: 71.2 µM | TGI [26]: 14.4 µM | TGI [27]: 27.7 µM | TGI [28]: 13 µM | TGI [29]: 38.9 µM | TGI [30]: 28.5 µM | TGI [31]: 9.63 µM | TGI [32]: 23.4 µM | TGI [33]: 42.7 µM | TGI [34]: 4.42 µM | TGI [35]: 59.9 µM | TGI [36]: 17.9 µM | TGI [37]: 26.6 µM | TGI [38]: 21.9 µM | TGI [39]: 16.8 µM | TGI [40]: 13.7 µM | TGI [41]: 30.5 µM | TGI [42]: 16.8 µM | TGI [43]: 17 µM | TGI [44]: 16.9 µM

O=C1c2ccccc2C(=O)C1(O)c1c[nH]c2ccccc12
TGI [1]: > 100 µM | TGI [2]: > 100 µM | TGI [45]: > 100 µM | TGI [3]: > 100 µM | TGI [4]: > 100 µM | TGI [46]: > 100 µM | TGI [5]: > 100 µM | TGI [6]: > 100 µM | TGI [7]: > 100 µM | TGI [47]: > 100 µM | TGI [8]: > 100 µM | TGI [9]: > 100 µM | TGI [10]: > 100 µM | TGI [11]: > 100 µM | TGI [12]: > 100 µM | TGI [13]: > 100 µM | TGI [14]: > 100 µM | TGI [48]: > 100 µM | TGI [15]: > 100 µM | TGI [16]: > 100 µM | TGI [17]: > 100 µM | TGI [49]: > 100 µM | TGI [18]: > 100 µM | TGI [19]: > 100 µM | TGI [20]: > 100 µM | TGI [21]: > 100 µM | TGI [22]: > 100 µM | TGI [50]: > 100 µM | TGI [23]: > 100 µM | TGI [24]: > 100 µM | TGI [25]: > 100 µM | TGI [51]: > 100 µM | TGI [26]: > 100 µM | TGI [27]: > 100 µM | TGI [29]: > 100 µM | TGI [30]: > 100 µM | TGI [52]: > 100 µM | TGI [32]: > 100 µM | TGI [33]: > 100 µM | TGI [53]: > 100 µM | TGI [34]: > 100 µM | TGI [54]: > 100 µM | TGI [36]: > 100 µM | TGI [37]: > 100 µM | TGI [38]: > 100 µM | TGI [39]: > 100 µM | TGI [42]: > 100 µM | TGI [44]: > 100 µM | TGI [55]: > 100 µM | TGI [56]: > 100 µM
